# Biological target: 5-hydroxytryptamine receptor 5A (Mus musculus, UniProt P30966)
# Sequence (P30966 whole entry): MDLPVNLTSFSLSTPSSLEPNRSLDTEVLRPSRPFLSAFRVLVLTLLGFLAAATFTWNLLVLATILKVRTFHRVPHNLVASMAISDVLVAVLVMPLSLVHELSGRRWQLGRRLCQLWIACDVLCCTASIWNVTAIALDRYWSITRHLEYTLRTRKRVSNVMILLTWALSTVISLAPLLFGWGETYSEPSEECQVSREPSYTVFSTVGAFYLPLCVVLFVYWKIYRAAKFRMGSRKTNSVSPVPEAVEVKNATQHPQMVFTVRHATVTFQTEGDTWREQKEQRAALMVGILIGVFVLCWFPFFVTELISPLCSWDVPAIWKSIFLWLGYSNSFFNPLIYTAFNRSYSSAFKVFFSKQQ
row,Compound,Ki [µM]
1,"CN1C[C@H](C(=O)N[C@]2(C)O[C@@]3(O)[C@@H]4CCCN4C(=O)[C@H](Cc4ccccc4)N3C2=O)C=C2c3cccc4[nH]cc(c34)C[C@H]21 [12'-hydroxy-2'-methyl-5'alpha-(phenylmethyl)ergotaman-3',6',18-trione]",0.038
2,CN(C)CCc1c[nH]c2ccc(O)cc12 [3-[2-(dimethylamino)ethyl]indol-5-ol],2.9
3,CN1CC(C(=O)O)C=C2c3cccc4[nH]cc(c34)CC21 (centres undefined) [NSC_622688],2
4,CC[C@@H](CO)NC(=O)[C@@H]1C=C2c3cccc4c3c(cn4C)C[C@H]2N(C)C1,0.5
